Measurements taken from US20150289513A1, “USE OF A COMPOUND COMPRISING A POLYFLUOROBENZYL MOIETY AGAINST INSECTICIDE-RESISTANT PESTS” (priority 2012, published 2015).

Columns and labels:
[1] = tested on: Anopheles gambiae (target-site-resistant and metabolic-resistant strain: RSPH); assay: Glazed tile contact test, knock-down; format: in vivo
Protocol: To produce a suitable preparation Transfluthrin was dissolved in acetone. The active compound solution was pipetted onto a glazed tile and, after drying, adult mosquitoes of the species: • Anopheles gambiae (target-site-resistant and metabolic-resistant strain: RSPH), • Anopheles gambiae (target-site-resitant and metabolic-resistant strain: Tiassalé), • Anopheles gambiae (tar et-site-resitant and metabolic-resistant strain: Akron), • Anopheles gambiae (target-site-resistant strain: VK7), and • Anopheles funestus (metabolic-resistant strain FUMOZ-R) were placed onto the treated tile (each strain was tested on separate tiles). The exposition time was 30 minutes.
(§1) 0.25 hours, 0.5 hours, 1 hour, 2 hour, 3 hour, 4 hour and 24 hours after contact to the treated surface, the knock-down proportion of the test animals in % was determined. Here, 100% (effect) means that all mosquitoes have been killed; 0% (effect) means that none of the mosquitoes have been killed.
Similarly as outlined in example 2 for Transfluthrin, Metofluthrin efficacy was assessed against • Anopheles gambiae (target-site-resistant and metabolic-resistant strain: RSPH), • Anopheles funestus (metabolic-resistant strain FUMOZ-R), and • Culex quinquefasciatus (metabolic-resistant to DDT; strain P00), with the results shown in Tables 10 to 12. 0.25 hours, 0.5 hours, 1 hour, 2 hour, 3 hour, 4 hour and 24 hours after contact to the treated surface, the knock-down proportion of the test animals in % is depicted in Tables 10 to 12. 100% (effect) means that all mosquitoes have been killed; 0% (effect) means that none of the mosquitoes have been killed.
Similarly as outlined in example 2 for Transfluthrin, Metofluthrin efficacy was assessed against • Anopheles gambiae (target-site-resistant and metabolic-resistant strain: RSPH), • Anopheles funestus (metabolic-resistant strain FUMOZ-R), and with the results shown in Tables […]. 0.25 hours, 0.5 hours, 1 hour, 2 hour and 3 hours after contact to the treated surface, the knock-down proportion of the test animals in % is depicted in Tables 13 to 14. 100% (effect) means that all mosquitoes have been killed; 0% (effect) means that none of the mosquitoes have been killed.

[2] = tested on: Aedes aegypti (target-site-resistant strain: Grand Cayman); assay: Glazed tile contact test, knock-down; format: in vivo
Protocol: To produce a suitable preparation Transfluthrin was dissolved in acetone. The active compound solution was pipetted onto a glazed tile and, after drying, adult mosquitoes of the species Aedes aegypti (target-site-resistant strain: Grand Cayman) were placed onto the treated tile. The exposition time was 30 minutes.
as §1

[3] = 0.064 g/ha, 0.25 h after contact
[4] = 0.064 g/ha, 0.5 h after contact
[5] = 0.32 g/ha, 0.25 h after contact

Q: Which Effect % [1, 3] does the source give for `CC=CC1C(C(=O)OCc2c(F)c(F)c(COC)c(F)c2F)C1(C)C` (stereo not shown) [Metofluthrin, 2,3,5,6-Tetrafluoro-4-(methoxymethyl)benzyl 2,2-dimethyl-3-(prop-1-en-1-yl)cyclopropanecarboxylate] here?
A: Its Effect % is 0%.

Q: What about the Effect % [1, 4] of the same molecule?
A: The Effect % was 0%.

Q: What about the Effect % ([1]; 0.064 g/ha, 1 h after contact) of the same molecule?
A: Its Effect % is 0%.

Q: What about the Effect % ([1]; 0.064 g/ha, 2 h after contact) of the same molecule?
A: The Effect % was 0%.

Q: What about the Effect % ([1]; 0.064 g/ha, 3 h after contact) of the same molecule?
A: The Effect % was 0%.

Q: And the Effect % ([1]; 0.064 g/ha, 4 h after contact)?
A: The Effect % was 10%.

Q: What about the Effect % ([1]; 0.064 g/ha, 24 h after contact) of the same molecule?
A: Its Effect % is 20%.

Q: What about the Effect % [1, 5] of the same molecule?
A: The Effect % was 0%.

Q: What about the Effect % ([1]; 0.32 g/ha, 0.5 h after contact) of the same molecule?
A: Its Effect % is 10%.

Q: And the Effect % ([1]; 0.32 g/ha, 1 h after contact)?
A: Its Effect % is 10%.

Q: What about the Effect % ([1]; 0.32 g/ha, 2 h after contact) of the same molecule?
A: Its Effect % is 10%.

Q: And the Effect % ([1]; 0.32 g/ha, 3 h after contact)?
A: Its Effect % is 0%.

Q: What about the Effect % ([1]; 0.32 g/ha, 4 h after contact) of the same molecule?
A: The Effect % was 10%.

Q: And the Effect % ([1]; 0.32 g/ha, 24 h after contact)?
A: Its Effect % is 20%.

Q: What about the Effect % ([1]; 1.6 g/ha, 0.25 h after contact) of the same molecule?
A: Its Effect % is 100%.

Q: What about the Effect % ([1]; 1.6 g/ha, 0.5 h after contact) of the same molecule?
A: Its Effect % is 100%.

Q: What about the Effect % ([1]; 1.6 g/ha, 1 h after contact) of the same molecule?
A: Its Effect % is 100%.

Q: And the Effect % ([1]; 1.6 g/ha, 2 h after contact)?
A: The Effect % was 100%.

Q: What about the Effect % ([1]; 1.6 g/ha, 3 h after contact) of the same molecule?
A: Its Effect % is 100%.

Q: What about the Effect % ([1]; 1.6 g/ha, 4 h after contact) of the same molecule?
A: The Effect % was 100%.

Q: What about the Effect % ([1]; 1.6 g/ha, 24 h after contact) of the same molecule?
A: Its Effect % is 100%.

Q: What about the Effect % ([1]; 8 g/ha, 0.25 h after contact) of the same molecule?
A: Its Effect % is 100%.

Q: What about the Effect % ([1]; 8 g/ha, 0.5 h after contact) of the same molecule?
A: The Effect % was 100%.

Q: And the Effect % ([1]; 8 g/ha, 1 h after contact)?
A: The Effect % was 100%.

Q: And the Effect % ([1]; 8 g/ha, 2 h after contact)?
A: The Effect % was 100%.

Q: And the Effect % ([1]; 8 g/ha, 3 h after contact)?
A: Its Effect % is 100%.

Q: And the Effect % ([1]; 8 g/ha, 4 h after contact)?
A: Its Effect % is 100%.

Q: And the Effect % ([1]; 8 g/ha, 24 h after contact)?
A: The Effect % was 100%.

Q: What about the Effect % ([1]; 40 g/ha, 0.25 h after contact) of the same molecule?
A: Its Effect % is 100%.

Q: What about the Effect % ([1]; 40 g/ha, 0.5 h after contact) of the same molecule?
A: The Effect % was 100%.

Q: And the Effect % ([1]; 40 g/ha, 1 h after contact)?
A: The Effect % was 100%.

Q: What about the Effect % ([1]; 40 g/ha, 2 h after contact) of the same molecule?
A: The Effect % was 100%.

Q: And the Effect % ([1]; 40 g/ha, 3 h after contact)?
A: Its Effect % is 100%.

Q: And the Effect % ([1]; 40 g/ha, 4 h after contact)?
A: Its Effect % is 100%.

Q: And the Effect % ([1]; 40 g/ha, 24 h after contact)?
A: The Effect % was 100%.

Q: What about the Effect % ([1]; 200 g/ha, 0.25 h after contact) of the same molecule?
A: The Effect % was 100%.

Q: And the Effect % ([1]; 200 g/ha, 0.5 h after contact)?
A: Its Effect % is 100%.

Q: What about the Effect % ([1]; 200 g/ha, 1 h after contact) of the same molecule?
A: The Effect % was 100%.

Q: And the Effect % ([1]; 200 g/ha, 2 h after contact)?
A: The Effect % was 100%.

Q: And the Effect % ([1]; 200 g/ha, 3 h after contact)?
A: The Effect % was 100%.

Q: What about the Effect % ([1]; 200 g/ha, 4 h after contact) of the same molecule?
A: Its Effect % is 100%.

Q: What about the Effect % ([1]; 200 g/ha, 24 h after contact) of the same molecule?
A: The Effect % was 100%.

Q: And the Effect % ([1]; 1000 g/ha, 0.25 h after contact)?
A: Its Effect % is 100%.

Q: What about the Effect % ([1]; 1000 g/ha, 0.5 h after contact) of the same molecule?
A: The Effect % was 100%.

Q: What about the Effect % ([1]; 1000 g/ha, 1 h after contact) of the same molecule?
A: Its Effect % is 100%.

Q: And the Effect % ([1]; 1000 g/ha, 2 h after contact)?
A: The Effect % was 100%.

Q: And the Effect % ([1]; 1000 g/ha, 3 h after contact)?
A: The Effect % was 100%.

Q: What about the Effect % ([1]; 1000 g/ha, 4 h after contact) of the same molecule?
A: Its Effect % is 100%.

Q: And the Effect % ([1]; 1000 g/ha, 24 h after contact)?
A: Its Effect % is 100%.

Q: `CC1(C)[C@H](C=C(Cl)Cl)[C@H]1C(=O)OCc1c(F)c(F)cc(F)c1F` [Transfluthrin, (1R,3S)-3-(2,2-Dichlorovinyl)-2,2-dimethyl-1-cyclopropanecarboxylic acid (2,3,5,6-tetrafluorophenyl)methyl ester] was tested. Which Effect % [2, 3] did it give?
A: Its Effect % is 5%.

Q: What about the Effect % [2, 4] of the same molecule?
A: The Effect % was 0%.

Q: What about the Effect % ([2]; 0.064 g/ha, 1 h after contact) of the same molecule?
A: Its Effect % is 0%.

Q: What about the Effect % ([2]; 0.064 g/ha, 2 h after contact) of the same molecule?
A: Its Effect % is 0%.

Q: And the Effect % ([2]; 0.064 g/ha, 3 h after contact)?
A: The Effect % was 0%.

Q: And the Effect % ([2]; 0.064 g/ha, 4 h after contact)?
A: Its Effect % is 0%.

Q: And the Effect % ([2]; 0.064 g/ha, 24 h after contact)?
A: Its Effect % is 10%.

Q: What about the Effect % [2, 5] of the same molecule?
A: Its Effect % is 20%.

Q: What about the Effect % ([2]; 0.32 g/ha, 0.5 h after contact) of the same molecule?
A: The Effect % was 25%.

Q: What about the Effect % ([2]; 0.32 g/ha, 1 h after contact) of the same molecule?
A: Its Effect % is 30%.

Q: And the Effect % ([2]; 0.32 g/ha, 2 h after contact)?
A: The Effect % was 20%.

Q: And the Effect % ([2]; 0.32 g/ha, 3 h after contact)?
A: Its Effect % is 20%.

Q: And the Effect % ([2]; 0.32 g/ha, 4 h after contact)?
A: Its Effect % is 25%.

Q: And the Effect % ([2]; 0.32 g/ha, 24 h after contact)?
A: The Effect % was 20%.

Q: What about the Effect % ([2]; 1.6 g/ha, 0.25 h after contact) of the same molecule?
A: The Effect % was 70%.

Q: And the Effect % ([2]; 1.6 g/ha, 0.5 h after contact)?
A: Its Effect % is 60%.

Q: And the Effect % ([2]; 1.6 g/ha, 1 h after contact)?
A: Its Effect % is 70%.

Q: What about the Effect % ([2]; 1.6 g/ha, 2 h after contact) of the same molecule?
A: The Effect % was 70%.

Q: What about the Effect % ([2]; 1.6 g/ha, 3 h after contact) of the same molecule?
A: Its Effect % is 65%.

Q: And the Effect % ([2]; 1.6 g/ha, 4 h after contact)?
A: Its Effect % is 60%.

Q: And the Effect % ([2]; 1.6 g/ha, 24 h after contact)?
A: The Effect % was 70%.

Q: And the Effect % ([2]; 8 g/ha, 0.25 h after contact)?
A: The Effect % was 90%.

Q: What about the Effect % ([2]; 8 g/ha, 0.5 h after contact) of the same molecule?
A: The Effect % was 100%.

Q: And the Effect % ([2]; 8 g/ha, 1 h after contact)?
A: The Effect % was 100%.

Q: What about the Effect % ([2]; 8 g/ha, 2 h after contact) of the same molecule?
A: Its Effect % is 90%.

Q: What about the Effect % ([2]; 8 g/ha, 3 h after contact) of the same molecule?
A: The Effect % was 100%.

Q: And the Effect % ([2]; 8 g/ha, 4 h after contact)?
A: Its Effect % is 90%.

Q: And the Effect % ([2]; 8 g/ha, 24 h after contact)?
A: Its Effect % is 90%.

Q: What about the Effect % ([2]; 40 g/ha, 0.25 h after contact) of the same molecule?
A: Its Effect % is 100%.

Q: And the Effect % ([2]; 40 g/ha, 0.5 h after contact)?
A: The Effect % was 100%.

Q: And the Effect % ([2]; 40 g/ha, 1 h after contact)?
A: The Effect % was 100%.

Q: And the Effect % ([2]; 40 g/ha, 2 h after contact)?
A: Its Effect % is 100%.

Q: And the Effect % ([2]; 40 g/ha, 3 h after contact)?
A: Its Effect % is 100%.

Q: What about the Effect % ([2]; 40 g/ha, 4 h after contact) of the same molecule?
A: Its Effect % is 100%.

Q: What about the Effect % ([2]; 40 g/ha, 24 h after contact) of the same molecule?
A: The Effect % was 100%.

Q: What about the Effect % ([2]; 200 g/ha, 0.25 h after contact) of the same molecule?
A: The Effect % was 100%.

Q: What about the Effect % ([2]; 200 g/ha, 0.5 h after contact) of the same molecule?
A: The Effect % was 100%.

Q: What about the Effect % ([2]; 200 g/ha, 1 h after contact) of the same molecule?
A: Its Effect % is 100%.

Q: What about the Effect % ([2]; 200 g/ha, 2 h after contact) of the same molecule?
A: The Effect % was 100%.

Q: What about the Effect % ([2]; 200 g/ha, 3 h after contact) of the same molecule?
A: The Effect % was 100%.

Q: What about the Effect % ([2]; 200 g/ha, 4 h after contact) of the same molecule?
A: The Effect % was 100%.

Q: And the Effect % ([2]; 200 g/ha, 24 h after contact)?
A: The Effect % was 100%.
